Source: PubChem BioAssay (NCI)
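Briefly, cells in 96-well plates were exposed to five compound concentrations for 48 h, and endpoints were estimated by linear interpolation. GI50 marks 50% less growth. TGI marks complete inhibition of growth.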

Assays:
Assay in all cases: DTP human tumour cell line panel, 48 h
786-0 renal = tested on: 786-0 renal
A498 renal = tested on: A498 renal
ACHN renal = tested on: ACHN renal
CAKI-1 renal = tested on: CAKI-1 renal
CCRF-CEM leukemia = tested on: CCRF-CEM leukemia
DU-145 prostate = tested on: DU-145 prostate
EKVX NSCLC = tested on: EKVX NSCLC
HCC-2998 colon = tested on: HCC-2998 colon
HCT-116 colon = tested on: HCT-116 colon
HCT-15 colon = tested on: HCT-15 colon
HL-60(TB) leukemia = tested on: HL-60(TB) leukemia
HOP-62 NSCLC = tested on: HOP-62 NSCLC
HOP-92 NSCLC = tested on: HOP-92 NSCLC
HS 578T breast = tested on: HS 578T breast
HT29 colon = tested on: HT29 colon
IGROV1 ovarian = tested on: IGROV1 ovarian
K-562 leukemia = tested on: K-562 leukemia
KM12 colon = tested on: KM12 colon
LOX IMVI melanoma = tested on: LOX IMVI melanoma
M14 melanoma = tested on: M14 melanoma
MCF7 breast = tested on: MCF7 breast
MDA-MB-231 breast = tested on: MDA-MB-231 breast
MDA-MB-435 = tested on: MDA-MB-435
MDA-N = tested on: MDA-N
MOLT-4 leukemia = tested on: MOLT-4 leukemia
NCI-H226 lung = tested on: NCI-H226 lung
NCI-H23 lung = tested on: NCI-H23 lung
NCI-H460 lung = tested on: NCI-H460 lung
NCI-H522 lung = tested on: NCI-H522 lung
NCI/ADR-RES ovarian = tested on: NCI/ADR-RES ovarian
OVCAR-3 ovarian = tested on: OVCAR-3 ovarian
OVCAR-4 ovarian = tested on: OVCAR-4 ovarian
OVCAR-5 ovarian = tested on: OVCAR-5 ovarian
OVCAR-8 ovarian = tested on: OVCAR-8 ovarian
PC-3 prostate = tested on: PC-3 prostate
RPMI-8226 leukemia = tested on: RPMI-8226 leukemia
RXF 393 renal = tested on: RXF 393 renal
SF-268 CNS = tested on: SF-268 CNS
SF-295 CNS = tested on: SF-295 CNS
SF-539 CNS = tested on: SF-539 CNS
SK-MEL-2 melanoma = tested on: SK-MEL-2 melanoma
SK-MEL-28 melanoma = tested on: SK-MEL-28 melanoma
SK-MEL-5 melanoma = tested on: SK-MEL-5 melanoma
SK-OV-3 ovarian = tested on: SK-OV-3 ovarian
SR leukemia = tested on: SR leukemia
SW-620 colon = tested on: SW-620 colon
T-47D breast = tested on: T-47D breast
TK-10 renal = tested on: TK-10 renal
U251 CNS = tested on: U251 CNS
UACC-257 melanoma = tested on: UACC-257 melanoma
UO-31 renal = tested on: UO-31 renal
A549 NSCLC = tested on: A549 NSCLC
BT-549 breast = tested on: BT-549 breast
COLO 205 colon = tested on: COLO 205 colon
MALME-3M melanoma = tested on: MALME-3M melanoma
SN12C renal = tested on: SN12C renal
SNB-19 CNS = tested on: SNB-19 CNS
SNB-75 CNS = tested on: SNB-75 CNS
UACC-62 melanoma = tested on: UACC-62 melanoma

COc1ccc(/C=C2\Sc3nnc(-c4ccccc4)n3N=C2c2cc(F)c(Cl)cc2Cl)cc1OC
TGI (786-0 renal): > 100 µM | TGI (A498 renal): > 100 µM | TGI (ACHN renal): > 100 µM | TGI (CAKI-1 renal): > 100 µM | TGI (CCRF-CEM leukemia): > 100000 nM | TGI (DU-145 prostate): > 100 µM | TGI (EKVX NSCLC): > 100 µM | TGI (HCC-2998 colon): 47.2 µM | TGI (HCT-116 colon): > 100 µM | TGI (HCT-15 colon): > 100 µM | TGI (HL-60(TB) leukemia): > 100000 nM | TGI (HOP-62 NSCLC): > 100 µM | TGI (HOP-92 NSCLC): > 100 µM | TGI (HS 578T breast): > 100 µM | TGI (HT29 colon): > 100 µM | TGI (IGROV1 ovarian): > 100 µM | TGI (K-562 leukemia): > 100 µM | TGI (KM12 colon): > 100 µM | TGI (LOX IMVI melanoma): > 100 µM | TGI (M14 melanoma): > 100000 nM | TGI (MCF7 breast): > 100 µM | TGI (MDA-MB-231 breast): > 100 µM | TGI (MDA-MB-435): > 100 µM | TGI (MDA-N): > 100 µM | TGI (MOLT-4 leukemia): 68.9 µM | TGI (NCI-H226 lung): > 100 µM | TGI (NCI-H23 lung): > 100 µM | TGI (NCI-H460 lung): > 100 µM | TGI (NCI-H522 lung): 38.3 µM | TGI (NCI/ADR-RES ovarian): > 100 µM | TGI (OVCAR-3 ovarian): > 100 µM | TGI (OVCAR-4 ovarian): > 100 µM | TGI (OVCAR-5 ovarian): > 100 µM | TGI (OVCAR-8 ovarian): > 100 µM | TGI (PC-3 prostate): > 100 µM | TGI (RPMI-8226 leukemia): > 100000 nM | TGI (RXF 393 renal): 54.4 µM | TGI (SF-268 CNS): > 100 µM | TGI (SF-295 CNS): > 100 µM | TGI (SF-539 CNS): > 100 µM | TGI (SK-MEL-2 melanoma): > 100 µM | TGI (SK-MEL-28 melanoma): > 100 µM | TGI (SK-MEL-5 melanoma): > 100 µM | TGI (SK-OV-3 ovarian): > 100 µM | TGI (SR leukemia): > 100000 nM | TGI (SW-620 colon): 92 µM | TGI (T-47D breast): > 100 µM | TGI (TK-10 renal): > 100 µM | TGI (U251 CNS): > 100 µM | TGI (UACC-257 melanoma): > 100 µM | TGI (UO-31 renal): > 100 µM

O=C(N/N=C/c1cc(Cl)ccc1O)c1ccccc1Nc1ccnc(C(F)(F)F)c1
GI50 (786-0 renal): 465 nM | TGI (786-0 renal): 4.29 µM | GI50 (A498 renal): 585 nM | TGI (A498 renal): 7.9 µM | GI50 (A549 NSCLC): 1260 nM | TGI (A549 NSCLC): 23.3 µM | GI50 (ACHN renal): 300 nM | TGI (ACHN renal): 11.2 µM | GI50 (BT-549 breast): 1080 nM | TGI (BT-549 breast): 25.7 µM | GI50 (CAKI-1 renal): 405 nM | TGI (CAKI-1 renal): 3.87 µM | GI50 (CCRF-CEM leukemia): 127 nM | TGI (CCRF-CEM leukemia): 1510 nM | GI50 (COLO 205 colon): 360 nM | TGI (COLO 205 colon): 13 µM | GI50 (DU-145 prostate): 362 nM | TGI (DU-145 prostate): 18.8 µM | GI50 (EKVX NSCLC): 250 nM | TGI (EKVX NSCLC): 4.86 µM | GI50 (HCC-2998 colon): 476 nM | TGI (HCC-2998 colon): 17.1 µM | GI50 (HCT-116 colon): 270 nM | TGI (HCT-116 colon): 13.1 µM | GI50 (HCT-15 colon): 152 nM | TGI (HCT-15 colon): 13.6 µM | GI50 (HL-60(TB) leukemia): 225 nM | TGI (HL-60(TB) leukemia): 937 nM | GI50 (HOP-62 NSCLC): 334 nM | TGI (HOP-62 NSCLC): 3.65 µM | GI50 (HOP-92 NSCLC): 833 nM | TGI (HOP-92 NSCLC): 12.1 µM | GI50 (HS 578T breast): 1150 nM | TGI (HS 578T breast): 10.5 µM | GI50 (HT29 colon): 1950 nM | TGI (HT29 colon): 18.3 µM | GI50 (IGROV1 ovarian): 361 nM | TGI (IGROV1 ovarian): 13.3 µM | GI50 (K-562 leukemia): 686 nM | TGI (K-562 leukemia): 14.5 µM | GI50 (KM12 colon): 604 nM | TGI (KM12 colon): 11.5 µM | GI50 (LOX IMVI melanoma): 263 nM | TGI (LOX IMVI melanoma): 12 µM | GI50 (M14 melanoma): 407 nM | TGI (M14 melanoma): 2260 nM | GI50 (MALME-3M melanoma): 839 nM | TGI (MALME-3M melanoma): 5.29 µM | GI50 (MCF7 breast): 351 nM | TGI (MCF7 breast): 30.3 µM | GI50 (MDA-MB-231 breast): 540 nM | TGI (MDA-MB-231 breast): 21.1 µM | GI50 (MDA-MB-435): 1160 nM | TGI (MDA-MB-435): 16.9 µM | GI50 (MOLT-4 leukemia): 241 nM | TGI (MOLT-4 leukemia): 6.27 µM | GI50 (NCI-H226 lung): 769 nM | TGI (NCI-H226 lung): 7.71 µM | GI50 (NCI-H23 lung): 1310 nM | TGI (NCI-H23 lung): 16.3 µM | GI50 (NCI-H460 lung): 323 nM | TGI (NCI-H460 lung): 10.5 µM | GI50 (NCI-H522 lung): 689 nM | TGI (NCI-H522 lung): 6.53 µM | GI50 (NCI/ADR-RES ovarian): 473 nM | TGI (NCI/ADR-RES ovarian): 9.03 µM | GI50 (OVCAR-3 ovarian): 472 nM | TGI (OVCAR-3 ovarian): 9.86 µM | GI50 (OVCAR-4 ovarian): 299 nM | TGI (OVCAR-4 ovarian): 35 µM | GI50 (OVCAR-5 ovarian): 1670 nM | TGI (OVCAR-5 ovarian): 25.6 µM | GI50 (OVCAR-8 ovarian): 493 nM | TGI (OVCAR-8 ovarian): 15.5 µM | GI50 (PC-3 prostate): 1010 nM | TGI (PC-3 prostate): 35.6 µM | GI50 (RPMI-8226 leukemia): 174 nM | TGI (RPMI-8226 leukemia): 1200 nM | GI50 (RXF 393 renal): 517 nM | TGI (RXF 393 renal): 14.1 µM | GI50 (SF-268 CNS): 370 nM | TGI (SF-268 CNS): 14.7 µM | GI50 (SF-295 CNS): 613 nM | TGI (SF-295 CNS): 13.2 µM | GI50 (SF-539 CNS): 721 nM | TGI (SF-539 CNS): 8.19 µM | GI50 (SK-MEL-2 melanoma): 2710 nM | TGI (SK-MEL-2 melanoma): 19.9 µM | GI50 (SK-MEL-28 melanoma): 389 nM | TGI (SK-MEL-28 melanoma): 15.1 µM | GI50 (SK-MEL-5 melanoma): 570 nM | TGI (SK-MEL-5 melanoma): 5.33 µM | GI50 (SK-OV-3 ovarian): 550 nM | TGI (SK-OV-3 ovarian): 19.1 µM | GI50 (SN12C renal): 1230 nM | TGI (SN12C renal): 10.2 µM | GI50 (SNB-19 CNS): 890 nM | TGI (SNB-19 CNS): 24.3 µM | GI50 (SNB-75 CNS): 703 nM | TGI (SNB-75 CNS): 20.8 µM | GI50 (SR leukemia): 246 nM | TGI (SR leukemia): 1760 nM | GI50 (SW-620 colon): 612 nM | TGI (SW-620 colon): 12.7 µM | GI50 (T-47D breast): 633 nM | TGI (T-47D breast): 9.62 µM | GI50 (TK-10 renal): 813 nM | TGI (TK-10 renal): > 48 µM | GI50 (U251 CNS): 335 nM | TGI (U251 CNS): 9.41 µM | GI50 (UACC-257 melanoma): 1430 nM | TGI (UACC-257 melanoma): 7.54 µM | GI50 (UACC-62 melanoma): 331 nM | TGI (UACC-62 melanoma): 1750 nM | GI50 (UO-31 renal): 346 nM | TGI (UO-31 renal): 7.73 µM
